Read-outs that look alike come from different tables or passages of the source. Starred links: 1 amine or outer side, 2 acyl side, 3 side chain; linkers in the order of their positions; H or OH if unused. Non-standard residues stand in square brackets, D forms with d. Residues, ends and D or L forms follow the SMILES beside them. Groups on a side chain read outwards from the residue. No end group written: not given here. *: point of attachment. C20 diacid = O=C(O)CCCCCCCCCCCCCCCCCCC(=O)*; γGlu = O=C(O)[C@H](CCC(=O)[*:2])N[*:1]; αMeL = CC(C)C[C@](C)(N)C(=O)O; Iva = CC[C@](C)(N)C(=O)O; AEEA = NCCOCCOCC(=O)O; Aib = CC(C)(N)C(=O)O
Key:
[1] = In vivo efficacy in diet-induced obesity (DIO) mouse model; design: species or system C57BL/6J mice; conditions: 10 nmol/kg subcutaneous once daily for 24 days; for body weight reduction at the experimental endpoint: DIO mice
Source text: In this example, a DIO mouse model established by high-fat diet induction was used to evaluate the effects on and improvement of obesity and diabetes-related indicators in DIO mice after subcutaneous injection of some of the compounds in the present disclosure.
4.1 Experimental methods: Obese male C57BL/6J mice (23-24 weeks old, obtained from Beijing Vital River Laboratory Animal Technology Co., Ltd.) induced by a high-fat diet were purchased. Six-week-old male C57BL/6J mice were fed a 60% high-fat diet (RD D12492) until their body weight reached 45-50g to obtain DIO model mice. After arriving at the facility and undergoing a week of acclimatization feeding, the animals were randomly divided into groups according to their body weight and administered vehicle (model group), LY3437943, Compound 15, Compound 16, Compound 17 and Compound 18 via subcutaneous injection in the neck. The compound was administered at a dose of 10 nmol/kg, and the frequency of administration was once daily via subcutaneous injection for 24 days. Each group contained 5 DIO mice. According to the experimental design, the body weight of each mouse was weighed and recorded daily at 3 pm or before administration, the average body weight of each group of mice was calculated, and a curve of body weight change over time was plotted. After the experiment, the fat and other organs of the mice were removed from various parts of the body, weighed, and recorded.

[2] = In vivo efficacy in diet-induced obesity (DIO) rat model; conditions: DIO rats; for 24h food intake compared with the model group / cumulative food intake compared with the model group: after dose adjustment; for cumulative food intake: entire administration period (before and after dose adjustment)
Procedure: In this experiment, a DIO rat model established on a 45% high-fat diet (HFD) was used to evaluate the effects of compounds on obesity-related indicators in DIO rats.
After one week of acclimatization, all rats were randomly divided into two groups: a normal group and a model group. The rats in the model group were then fed 45% HFD (Medison: MD12032), while the rats in the normal group were fed normal food. The body weight of the rats was measured weekly to monitor the modeling process.
DIO rats fed a high-fat diet for 37 weeks were weighed, and 75 DIO rats (approximately 1100g) and 8 rats (approximately 800g) on a normal diet (Chow diet) were selected and separated into individual cages. Each cage was fed approximately 100g of food at a time, and the food was changed every 48 hours. A preliminary sham dose experiment was then conducted. Subcutaneous acupuncture was performed on the neck once daily at 4 pm for 9 consecutive days. Body weight was measured before each acupuncture session and the effect of sham dose on body weight was observed. A curve of body weight changes over time was plotted. The formal dosing experiment was initiated after the body weight had stabilized.
Six Chow diet rats (weighing approximately 800g) and 30 HFD rats (weighing approximately 1100g) were selected through a preliminary sham dose experiment for subsequent dosing experiments. […] During the experiment, all rats were housed in single cages. The compound was dissolved in PBS solution at pH 7.4. On the day of grouping (Day 1), rats in each group were given the drug by subcutaneous injection in the neck according to their body weight, once daily (QD), as detailed in Table 9. […] The body weight was measured once daily at 15:00 or before administration, and a curve of body weight changes over time was plotted. Food intake: 1-7 days, measured once daily at 15:00 or before administration; 8-40 days, measured once every three days at 15:00 or before administration. A curve of changes in daily/cumulative food intake over time was plotted. Table 9. Dosing information for experimental groups

[3] = biological target: T1, human GIPR (Homo sapiens, UniProt P48546); experiment: cAMP HTRF agonist activity assay in CHO-K1 cells expressing GIPR; type: cell-based; as to Activity against human GIPR (EC50 nM): 5% FBS, 0.1% Casein
T1 construct: expressed in transfected cells; host or cells: CHO-K1 clonal cell line
T1 sequence (P48546 22-466): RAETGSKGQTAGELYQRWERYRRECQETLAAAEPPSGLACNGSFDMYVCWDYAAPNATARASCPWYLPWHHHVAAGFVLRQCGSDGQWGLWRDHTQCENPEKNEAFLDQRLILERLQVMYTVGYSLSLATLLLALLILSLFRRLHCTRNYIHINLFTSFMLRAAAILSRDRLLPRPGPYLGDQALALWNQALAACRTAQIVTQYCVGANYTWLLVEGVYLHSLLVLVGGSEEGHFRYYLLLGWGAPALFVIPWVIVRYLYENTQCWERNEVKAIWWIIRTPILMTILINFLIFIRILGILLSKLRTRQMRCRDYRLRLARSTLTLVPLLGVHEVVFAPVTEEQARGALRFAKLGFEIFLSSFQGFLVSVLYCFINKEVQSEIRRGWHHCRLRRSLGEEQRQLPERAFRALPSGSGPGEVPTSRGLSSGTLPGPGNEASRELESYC
Procedure, shortened: (§1)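 Clonal CHO-K1 lines, 5000 cells/well, exposed to polypeptides for 30 min at 37°C. Intracellular cAMP read by HTRF (cAMP-d2 conjugate plus anti-cAMP-Eu cryptate in lysis buffer). Relative EC50 from four-parameter nonlinear fit of percent maximum response against concentration.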

[4] = Pharmacokinetics in mice after single intravenous injection; design: species or system C57 mice; conditions: mouse, in vivo, male C57 mice, single intravenous dose 200 nmol/kg, plasma
Procedure, shortened: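 Male C57 mice (~25 g, 4-6 weeks, n=3) received a single i.v. dose of 200 nmol/kg in 1×PBS. Plasma collected from 5 min to 72 h was methanol-precipitated with verapamil internal standard and quantified by LC-MS (ESI positive, MRM); PK parameters were calculated by PKSolver.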

[5] = biological target: T2, human GLP-1R (Homo sapiens, UniProt P43220); experiment: cAMP HTRF agonist activity assay in CHO-K1 cells expressing GLP-1R; type: cell-based; conditions: read-out: Activity against human GLP-1R (EC50 nM); also: 5% FBS, 0.1% Casein
T2 construct: expressed in transfected cells; host or cells: CHO-K1 clonal cell line
Procedure, shortened: as §1

[6] = biological target: T3, human GCGR (Homo sapiens, UniProt P47871); experiment: cAMP HTRF agonist activity assay in CHO-K1 cells expressing GCGR; type: cell-based; conditions: read-out: Activity against human GCGR (EC50 nM); also: 5% FBS, 0.1% Casein
T3 construct: expressed in transfected cells; host or cells: CHO-K1 clonal cell line
Procedure: Functional activity was determined in CHO-K1 clonal cell lines expressing GIPR, GLP-1R, and GCGR. […] Each recipient cell (5000 cells/well) was added to an SV 96-well plate (Cisbio, 66PL96025) and incubated with the prepared polypeptide at 37°Cfor 30 min. The resulting increase in intracellular cAMP was quantitatively measured using the cAMP-GS dynamic HTRF assay kit (Cisbio, 62AM4PEJ). Briefly, the intracellular cAMP levels were determined by adding cAMP-d2 conjugate in cell lysis buffer, followed by the antibody anti-cAMP-Eu cryptate (also in cell lysis buffer).
Using the maximum response percentage vs. the added polypeptide concentration, the relative EC50 values were derived through nonlinear regression analysis and fitted to a four-parameter logarithmic equation. For specific data, refer to Tables 7-1 to 7-8 below. […]

[7] = biological target: human glucagon-like peptide-1 receptor (human, UniProt P43220 24-463); experiment: cell-based or functional assay
[8] = biological target: T4, human glucose-dependent insulinotropic polypeptide receptor (human, UniProt P48546 22-466); experiment: cell-based or functional assay
T4 sequence (looked up): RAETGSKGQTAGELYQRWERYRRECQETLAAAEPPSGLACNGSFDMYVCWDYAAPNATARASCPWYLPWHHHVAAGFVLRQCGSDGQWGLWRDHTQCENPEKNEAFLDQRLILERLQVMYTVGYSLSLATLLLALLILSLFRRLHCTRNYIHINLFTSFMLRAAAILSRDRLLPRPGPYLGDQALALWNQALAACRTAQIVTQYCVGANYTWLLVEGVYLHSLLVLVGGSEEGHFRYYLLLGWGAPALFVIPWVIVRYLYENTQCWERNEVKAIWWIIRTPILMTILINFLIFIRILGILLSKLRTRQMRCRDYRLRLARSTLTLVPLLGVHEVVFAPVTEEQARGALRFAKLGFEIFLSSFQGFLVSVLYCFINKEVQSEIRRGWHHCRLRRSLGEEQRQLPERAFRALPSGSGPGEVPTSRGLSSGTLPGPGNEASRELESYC

[9] = biological target: human glucagon receptor (human, UniProt P47871 26-477); experiment: cell-based or functional assay
Chain of human glucagon receptor (P47871 26-477): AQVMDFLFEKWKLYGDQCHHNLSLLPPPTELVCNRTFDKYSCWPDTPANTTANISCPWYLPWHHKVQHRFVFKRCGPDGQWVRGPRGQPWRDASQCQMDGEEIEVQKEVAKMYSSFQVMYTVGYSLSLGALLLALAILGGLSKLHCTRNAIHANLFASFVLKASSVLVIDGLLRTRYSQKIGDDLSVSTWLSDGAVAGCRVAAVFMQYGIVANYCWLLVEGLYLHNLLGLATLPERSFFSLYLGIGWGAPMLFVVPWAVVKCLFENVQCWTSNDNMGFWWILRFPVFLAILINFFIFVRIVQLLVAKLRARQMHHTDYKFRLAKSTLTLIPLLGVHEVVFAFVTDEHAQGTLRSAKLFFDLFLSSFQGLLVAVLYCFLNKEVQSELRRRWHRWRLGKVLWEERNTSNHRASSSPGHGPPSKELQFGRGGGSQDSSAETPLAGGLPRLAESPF

T2 sequence (P43220 24-463): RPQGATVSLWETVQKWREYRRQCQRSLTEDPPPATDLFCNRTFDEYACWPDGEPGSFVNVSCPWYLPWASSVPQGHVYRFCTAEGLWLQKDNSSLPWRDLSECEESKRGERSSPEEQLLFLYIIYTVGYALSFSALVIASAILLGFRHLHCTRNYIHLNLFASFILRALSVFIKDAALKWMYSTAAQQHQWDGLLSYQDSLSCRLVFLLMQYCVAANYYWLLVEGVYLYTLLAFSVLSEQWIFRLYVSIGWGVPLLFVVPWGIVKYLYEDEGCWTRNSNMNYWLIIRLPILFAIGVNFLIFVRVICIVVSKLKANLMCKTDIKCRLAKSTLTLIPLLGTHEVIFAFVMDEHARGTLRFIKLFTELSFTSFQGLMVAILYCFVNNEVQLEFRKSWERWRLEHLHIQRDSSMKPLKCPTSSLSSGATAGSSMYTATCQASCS
T3 sequence (P47871 26-477): as the sequence (P47871 26-477) above

CC[C@H](C)[C@H](NC(=O)[C@H](CO)NC(=O)[C@H](Cc1ccc(O)cc1)NC(=O)[C@H](CC(=O)O)NC(=O)[C@H](CO)NC(=O)[C@@H](NC(=O)[C@H](Cc1ccccc1)NC(=O)[C@@H](NC(=O)CNC(=O)[C@H](Cc1c[nH]cn1)NC(=O)C(C)(C)NC(=O)[C@@H](N)Cc1c[nH]cn1)[C@@H](C)O)[C@@H](C)O)C(=O)N[C@@H](CC(C)C)C(=O)N[C@@H](CC(C)C)C(=O)N[C@@H](CCC(=O)O)C(=O)N[C@@H](CCCCNC(=O)COCCOCCNC(=O)COCCOCCNC(=O)CC[C@H](NC(=O)CCCCCCCCCCCCCCCCCCC(=O)O)C(=O)O)C(=O)N[C@@H](CCCCN)C(=O)N[C@@H](C)C(=O)N[C@@H](C)C(=O)N[C@@H](CCC(N)=O)C(=O)N[C@@H](CCC(=O)O)C(=O)N[C@@H](Cc1ccccc1)C(=O)N[C@H](C(=O)N[C@@H](CCC(=O)O)C(=O)N[C@@H](Cc1c[nH]c2ccccc12)C(=O)N[C@@H](CC(C)C)C(=O)N[C@@H](CC(C)C)C(=O)N[C@@H](C)C(=O)NCC(=O)NCC(=O)N1CCC[C@H]1C(=O)N[C@@H](CO)C(=O)N[C@@H](CO)C(=O)NCC(=O)N[C@@H](C)C(=O)N1CCC[C@H]1C(=O)N1CCC[C@H]1C(=O)N1CCC[C@H]1C(=O)N[C@@H](CO)C(N)=O)C(C)C [Compound 0120] (H-H[Aib]HGTFTSDYSILLEK([AEEA-AEEA-γGlu-C20 diacid])KAAQEFVEWLLAGGPSSGAPPPS-NH2)
body weight of DIO mice compared with the test group given the vehicle [1]: significant reduction in body weight | final body weight relative to body weight of mice on a normal diet (Chow) ([1]; indicating good safety): ≥ 80% | body weight reduction at the experimental endpoint [1]: 36.6% | 24h food intake compared with the model group ([2]; 3 nmol/kg subcutaneous QD): significantly reduced | cumulative food intake compared with the model group ([2]; 3 nmol/kg subcutaneous QD): significantly reduced | cumulative food intake ([2]; 0.3 then 3 nmol/kg subcutaneous QD): 258.8 ± 23.5 g | body weight loss at the end of the experiment ([2]; subcutaneous QD, 0.3 nmol/kg adjusted to 3 nmol/kg from day 15): 30.2% | body weight compared with the model group ([2]; subcutaneous QD, 1 nmol/kg, before adjusting the administration dose): decreasing trend | EC50 [3]: 0.002 nM | AUC(0-inf) [4]: 94.1 µM·h | C0 [4]: 9.93 µM | clearance ([4]; read-out: CLp): 2.04 mL/h/kg | half-life ([4]; read-out: T1/2 (converted)): 14.7 h

CC[C@H](C)[C@H](NC(=O)[C@H](Cc1ccccc1)NC(=O)[C@H](C)NC(=O)C(C)(C)NC(=O)[C@H](CCC(N)=O)NC(=O)[C@H](C)NC(=O)[C@H](CCCCNC(=O)COCCOCCNC(=O)CC[C@H](NC(=O)CCCCCCCCCCCCCCCCCCC(=O)O)C(=O)O)NC(=O)[C@H](CCCCN)NC(=O)[C@H](CC(=O)O)NC(=O)[C@H](CC(C)C)NC(=O)[C@](C)(CC(C)C)NC(=O)[C@@H](NC(=O)[C@H](CO)NC(=O)[C@H](Cc1ccc(O)cc1)NC(=O)[C@H](CC(=O)O)NC(=O)[C@H](CO)NC(=O)[C@@H](NC(=O)[C@H](Cc1ccccc1)NC(=O)[C@@H](NC(=O)CNC(=O)[C@H](CCC(N)=O)NC(=O)C(C)(C)NC(=O)[C@@H](N)Cc1ccc(O)cc1)[C@@H](C)O)[C@@H](C)O)[C@@H](C)CC)C(=O)N[C@@H](CCC(=O)O)C(=O)N[C@@H](Cc1ccc(O)cc1)C(=O)N[C@@H](CC(C)C)C(=O)N[C@@H](CC(C)C)C(=O)N[C@@H](CCC(=O)O)C(=O)NCC(=O)NCC(=O)N1CCC[C@H]1C(=O)N[C@@H](CO)C(=O)N[C@@H](CO)C(=O)NCC(=O)N[C@@H](C)C(=O)N1CCC[C@H]1C(=O)N1CCC[C@H]1C(=O)N1CCC[C@H]1C(=O)N[C@@H](CO)C(N)=O [LY3437943, reference compound]
EC50 [5]: 0.08 nM | body weight of DIO mice compared with the test group given the vehicle [1]: significant reduction in body weight | body weight reduction at the experimental endpoint [1]: 30.4% | 24h food intake compared with the model group ([2]; 10 nmol/kg subcutaneous QD): significantly reduced | cumulative food intake compared with the model group ([2]; 10 nmol/kg subcutaneous QD): significantly reduced | cumulative food intake ([2]; 1 then 10 nmol/kg subcutaneous QD): 273.8 ± 15.0 g | body weight loss at the end of the experiment ([2]; subcutaneous QD, 1 nmol/kg adjusted to 10 nmol/kg from day 15): 29.4% | EC50 [6]: 0.412 nM | EC50 ([3]; read-out: Activity against human GIPR (EC50 nM)): 0.002 nM

H[Aib]HGTFTSDLSI[αMeL]LEK([AEEA-AEEA-γGlu-C20 diacid])KAA[Iva]EFVEWLLAGGPSSGAPPPS-NH2 [Compound No. 0138]
Activity against human GLP-1R (EC50 nM) [7]: 0.019 nM | Activity against human GIPR (EC50 nM) [8]: 0.0006 nM | Activity against human GCGR (EC50 nM) [9]: 0.055 nM

H[Aib]HGTFTSDYSI[αMeL]LEK([AEEA-AEEA-γGlu-C20 diacid])KAA[Iva]EFVEWLLAGGPSSGAPPPS-NH2 [Compound No. 0137]
Activity against human GLP-1R (EC50 nM) [7]: 0.013 nM | Activity against human GIPR (EC50 nM) [8]: 0.001 nM | Activity against human GCGR (EC50 nM) [9]: 0.047 nM
